From ChEMBL document CHEMBL5463729, “Data for DCP probe BAY 1753011” (2023)
Calls of active or inactive are those of the source. The calls are words filed in the database; no cut-off is given here.

Columns and labels:
Oxytocin receptor = biological target: T1, Oxytocin receptor (Homo sapiens, UniProt P30559); assay: Radiometric OXTR binding assay (Eurofins #260900)
T1 sequence (P30559 whole entry): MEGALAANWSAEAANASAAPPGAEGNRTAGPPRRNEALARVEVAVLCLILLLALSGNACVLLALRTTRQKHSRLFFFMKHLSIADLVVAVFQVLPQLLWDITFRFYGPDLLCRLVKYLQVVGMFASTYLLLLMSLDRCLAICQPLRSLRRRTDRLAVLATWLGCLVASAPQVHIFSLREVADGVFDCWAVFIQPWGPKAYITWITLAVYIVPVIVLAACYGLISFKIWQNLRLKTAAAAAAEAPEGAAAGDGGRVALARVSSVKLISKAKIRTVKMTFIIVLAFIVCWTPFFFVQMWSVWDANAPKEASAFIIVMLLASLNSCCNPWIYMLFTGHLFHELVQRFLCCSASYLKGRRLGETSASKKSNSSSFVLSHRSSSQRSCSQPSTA

[1] = biological target: Activin receptor type-1 (Homo sapiens) (UniProt Q04771); assay: Inhibition of ALK2(h) at 10.0 µM in the Eurofins Kinase panel; details: Compound concentration 10.0 uM
[2] = biological target: Serine/threonine-protein kinase A-Raf (Homo sapiens) (UniProt P10398); assay: Inhibition of A-Raf(h) at 10.0 µM in the Eurofins Kinase panel; details: Compound concentration 10.0 uM
[3] = biological target: Aurora kinase A (Homo sapiens) (UniProt O14965); assay: Inhibition of Aurora-A(h) at 10.0 µM in the Eurofins Kinase panel; details: Compound concentration 10.0 uM
[4] = biological target: Casein kinase II subunit alpha' (Homo sapiens) (UniProt P19784); assay: Inhibition of CK2alpha2(h) at 10.0 µM in the Eurofins Kinase panel; details: Compound concentration 10.0 uM
[5] = biological target: Death-associated protein kinase 2 (Homo sapiens) (UniProt Q9UIK4); assay: Inhibition of DAPK2(h) at 10.0 µM in the Eurofins Kinase panel; details: Compound concentration 10.0 uM
[6] = biological target: Serine/threonine-protein kinase DCLK1 (Homo sapiens) (UniProt O15075); assay: Inhibition of DCAMKL1(h) at 10.0 µM in the Eurofins Kinase panel; details: Compound concentration 10.0 uM
[7] = biological target: Ephrin type-A receptor 5 (Homo sapiens) (UniProt P54756); assay: Inhibition of EphA5(h) at 10.0 µM in the Eurofins Kinase panel; details: Compound concentration 10.0 uM
[8] = biological target: Serine/threonine-protein kinase MRCK beta (Homo sapiens) (UniProt Q9Y5S2); assay: Inhibition of MRCKbeta(h) at 10.0 µM in the Eurofins Kinase panel; details: Compound concentration 10.0 uM
[9] = biological target: SRSF protein kinase 3 (Homo sapiens) (UniProt Q9UPE1); assay: Inhibition of MSSK1(h) at 10.0 µM in the Eurofins Kinase panel; details: Compound concentration 10.0 uM
[10] = biological target: Serine/threonine-protein kinase Nek2 (Homo sapiens) (UniProt P51955); assay: Inhibition of NEK2(h) at 10.0 µM in the Eurofins Kinase panel; details: Compound concentration 10.0 uM
[11] = biological target: Serine/threonine-protein kinase Nek5 (Homo sapiens) (UniProt Q6P3R8); assay: Inhibition of NEK5(h) at 10.0 µM in the Eurofins Kinase panel; details: Compound concentration 10.0 uM
[12] = biological target: Protein kinase C epsilon type (Homo sapiens) (UniProt Q02156); assay: Inhibition of PKCepsilon(h) at 10.0 µM in the Eurofins Kinase panel; details: Compound concentration 10.0 uM
[13] = biological target: Interferon-induced, double-stranded RNA-activated protein kinase (Homo sapiens) (UniProt P19525); assay: Inhibition of PKR(h) at 10.0 µM in the Eurofins Kinase panel; details: Compound concentration 10.0 uM
[14] = biological target: MAP kinase-activated protein kinase 5 (Homo sapiens) (UniProt Q8IW41); assay: Inhibition of PRAK(h) at 10.0 µM in the Eurofins Kinase panel; details: Compound concentration 10.0 uM
[15] = biological target: Protein-tyrosine kinase 2-beta (Homo sapiens) (UniProt Q14289); assay: Inhibition of Pyk2(h) at 10.0 µM in the Eurofins Kinase panel; details: Compound concentration 10.0 uM
[16] = biological target: Mitogen-activated protein kinase 11 (Homo sapiens) (UniProt Q15759); assay: Inhibition of SAPK2b(h) at 10.0 µM in the Eurofins Kinase panel; details: Compound concentration 10.0 uM
[17] = biological target: Mitogen-activated protein kinase kinase kinase 7 (Homo sapiens) (UniProt O43318); assay: Inhibition of TAK1(h) at 10.0 µM in the Eurofins Kinase panel; details: Compound concentration 10.0 uM
[18] = biological target: Serine/threonine-protein kinase WNK3 (Homo sapiens) (UniProt Q9BYP7); assay: Inhibition of WNK3(h) at 10.0 µM in the Eurofins Kinase panel; details: Compound concentration 10.0 uM
[19] = biological target: Tyrosine-protein kinase ZAP-70 (Homo sapiens) (UniProt P43403); assay: Inhibition of ZAP-70(h) at 10.0 µM in the Eurofins Kinase panel; details: Compound concentration 10.0 uM
[20] = biological target: Phosphatidylinositol 4,5-bisphosphate 3-kinase catalytic subunit gamma isoform (Homo sapiens) (UniProt P48736); assay: Inhibition of PI3 Kinase (p120g)(h) at 10.0 µM in the Eurofins Kinase panel; details: Compound concentration 10.0 uM
[21] = biological target: Phosphatidylinositol 4-phosphate 5-kinase type-1 gamma (Homo sapiens) (UniProt O60331); assay: Inhibition of PIP5K1g(h) at 10.0 µM in the Eurofins Kinase panel; details: Compound concentration 10.0 uM
[22] = biological target: 5-hydroxytryptamine receptor 2B (Homo sapiens) (UniProt P41595); details: Compound concentration 10.0 uM
[23] = biological target: D(1B) dopamine receptor (Homo sapiens) (UniProt P21918); details: Compound concentration 10.0 uM
[24] = biological target: Sodium-dependent serotonin transporter (Homo sapiens) (UniProt P31645); details: Compound concentration 10.0 uM
[25] = biological target: Muscarinic acetylcholine receptor M3 (Homo sapiens) (UniProt P20309); details: Compound concentration 10.0 uM
[26] = biological target: Sigma non-opioid intracellular receptor 1 (Homo sapiens) (UniProt Q99720); details: Compound concentration 10.0 uM
[27] = biological target: Adenosine receptor A1 (Homo sapiens) (UniProt P30542); details: Compound concentration 10.0 uM
Rattus norvegicus = species: Rattus norvegicus; details: Compound concentration 10.0 uM
[28] = biological target: T2, Alpha-2C adrenergic receptor (Homo sapiens) (UniProt P18825); details: Compound concentration 10.0 uM
T2 sequence (whole entry): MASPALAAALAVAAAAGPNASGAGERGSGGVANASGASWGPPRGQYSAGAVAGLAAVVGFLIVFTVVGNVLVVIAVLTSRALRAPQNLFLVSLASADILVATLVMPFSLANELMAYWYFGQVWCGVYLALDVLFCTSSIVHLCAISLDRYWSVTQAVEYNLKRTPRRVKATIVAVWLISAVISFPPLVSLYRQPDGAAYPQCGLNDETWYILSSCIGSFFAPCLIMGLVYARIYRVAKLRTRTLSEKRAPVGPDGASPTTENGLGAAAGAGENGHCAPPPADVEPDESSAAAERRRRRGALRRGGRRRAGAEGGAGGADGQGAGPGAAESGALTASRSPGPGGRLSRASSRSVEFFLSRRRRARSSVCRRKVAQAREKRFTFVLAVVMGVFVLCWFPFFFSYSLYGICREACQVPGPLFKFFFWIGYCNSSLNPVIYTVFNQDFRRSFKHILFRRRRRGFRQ

Sequence of Muscarinic acetylcholine receptor M3 (Homo sapiens) (P20309 whole entry, looked up): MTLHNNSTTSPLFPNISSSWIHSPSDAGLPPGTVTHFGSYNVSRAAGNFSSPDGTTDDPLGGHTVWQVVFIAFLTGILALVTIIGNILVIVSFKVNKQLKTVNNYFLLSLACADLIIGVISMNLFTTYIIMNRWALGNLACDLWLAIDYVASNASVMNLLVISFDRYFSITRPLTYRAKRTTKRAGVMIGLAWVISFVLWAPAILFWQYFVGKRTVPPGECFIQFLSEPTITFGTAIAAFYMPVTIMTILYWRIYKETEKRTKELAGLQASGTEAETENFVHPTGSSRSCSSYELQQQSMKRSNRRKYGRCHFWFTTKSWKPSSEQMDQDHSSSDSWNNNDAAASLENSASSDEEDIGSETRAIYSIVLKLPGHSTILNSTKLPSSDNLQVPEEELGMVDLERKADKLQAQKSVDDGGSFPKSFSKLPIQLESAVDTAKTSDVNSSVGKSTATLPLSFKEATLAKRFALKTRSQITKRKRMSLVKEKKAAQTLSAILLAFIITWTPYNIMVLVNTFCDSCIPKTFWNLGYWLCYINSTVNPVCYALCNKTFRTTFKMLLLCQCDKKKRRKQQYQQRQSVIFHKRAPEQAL
Sequence of D(1B) dopamine receptor (Homo sapiens) (P21918 whole entry): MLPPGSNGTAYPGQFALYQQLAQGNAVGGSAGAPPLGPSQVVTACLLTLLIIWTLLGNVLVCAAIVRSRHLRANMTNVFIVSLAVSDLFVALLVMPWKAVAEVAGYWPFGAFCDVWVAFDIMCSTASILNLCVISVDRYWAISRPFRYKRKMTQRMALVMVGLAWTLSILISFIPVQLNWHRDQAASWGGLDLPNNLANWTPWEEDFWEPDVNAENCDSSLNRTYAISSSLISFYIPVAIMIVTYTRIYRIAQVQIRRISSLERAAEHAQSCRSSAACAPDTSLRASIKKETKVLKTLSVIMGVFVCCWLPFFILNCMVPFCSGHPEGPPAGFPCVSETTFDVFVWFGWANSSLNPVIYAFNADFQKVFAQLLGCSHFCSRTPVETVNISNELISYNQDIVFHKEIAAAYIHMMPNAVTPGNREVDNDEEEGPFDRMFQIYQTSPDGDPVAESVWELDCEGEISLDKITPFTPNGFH
Sequence of Sigma non-opioid intracellular receptor 1 (Homo sapiens) (Q99720 whole entry): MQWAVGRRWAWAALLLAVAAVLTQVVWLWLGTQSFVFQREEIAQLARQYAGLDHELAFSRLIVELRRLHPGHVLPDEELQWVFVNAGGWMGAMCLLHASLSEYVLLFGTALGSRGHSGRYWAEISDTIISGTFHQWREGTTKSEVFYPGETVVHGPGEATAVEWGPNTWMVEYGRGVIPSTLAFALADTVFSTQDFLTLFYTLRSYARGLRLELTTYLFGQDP
Sequence of 5-hydroxytryptamine receptor 2B (Homo sapiens) (P41595 whole entry): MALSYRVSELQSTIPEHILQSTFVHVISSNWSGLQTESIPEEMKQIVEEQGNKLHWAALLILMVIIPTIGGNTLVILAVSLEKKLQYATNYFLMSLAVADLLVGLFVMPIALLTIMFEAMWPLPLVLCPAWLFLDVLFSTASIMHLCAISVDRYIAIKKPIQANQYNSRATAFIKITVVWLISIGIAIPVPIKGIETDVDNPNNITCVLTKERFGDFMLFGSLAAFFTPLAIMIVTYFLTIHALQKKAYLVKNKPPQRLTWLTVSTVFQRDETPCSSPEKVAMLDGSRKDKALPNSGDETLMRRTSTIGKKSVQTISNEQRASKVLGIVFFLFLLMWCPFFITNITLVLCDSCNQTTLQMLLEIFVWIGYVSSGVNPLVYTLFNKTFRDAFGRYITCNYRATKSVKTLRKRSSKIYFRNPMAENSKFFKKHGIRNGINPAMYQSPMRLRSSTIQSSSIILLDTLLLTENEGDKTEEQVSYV
Sequence of Sodium-dependent serotonin transporter (Homo sapiens) (P31645 whole entry, looked up): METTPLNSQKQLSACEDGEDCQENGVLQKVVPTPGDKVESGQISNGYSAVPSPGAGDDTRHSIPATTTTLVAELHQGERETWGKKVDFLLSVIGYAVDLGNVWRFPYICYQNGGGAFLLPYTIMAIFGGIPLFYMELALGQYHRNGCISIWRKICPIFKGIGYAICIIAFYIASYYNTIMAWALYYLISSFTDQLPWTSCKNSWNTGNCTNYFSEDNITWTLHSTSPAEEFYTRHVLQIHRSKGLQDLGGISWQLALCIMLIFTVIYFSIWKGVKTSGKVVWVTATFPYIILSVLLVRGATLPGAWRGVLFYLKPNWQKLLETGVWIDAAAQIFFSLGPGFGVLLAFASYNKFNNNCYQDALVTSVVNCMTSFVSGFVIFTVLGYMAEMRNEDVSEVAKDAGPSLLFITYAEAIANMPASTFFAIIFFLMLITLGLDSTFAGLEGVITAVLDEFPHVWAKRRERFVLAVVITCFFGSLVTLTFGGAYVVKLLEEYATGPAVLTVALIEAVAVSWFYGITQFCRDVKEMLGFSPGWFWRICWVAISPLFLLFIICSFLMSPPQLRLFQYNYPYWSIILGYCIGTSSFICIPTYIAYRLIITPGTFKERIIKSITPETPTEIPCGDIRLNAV
Sequence of Serine/threonine-protein kinase MRCK beta (Homo sapiens) (Q9Y5S2 whole entry): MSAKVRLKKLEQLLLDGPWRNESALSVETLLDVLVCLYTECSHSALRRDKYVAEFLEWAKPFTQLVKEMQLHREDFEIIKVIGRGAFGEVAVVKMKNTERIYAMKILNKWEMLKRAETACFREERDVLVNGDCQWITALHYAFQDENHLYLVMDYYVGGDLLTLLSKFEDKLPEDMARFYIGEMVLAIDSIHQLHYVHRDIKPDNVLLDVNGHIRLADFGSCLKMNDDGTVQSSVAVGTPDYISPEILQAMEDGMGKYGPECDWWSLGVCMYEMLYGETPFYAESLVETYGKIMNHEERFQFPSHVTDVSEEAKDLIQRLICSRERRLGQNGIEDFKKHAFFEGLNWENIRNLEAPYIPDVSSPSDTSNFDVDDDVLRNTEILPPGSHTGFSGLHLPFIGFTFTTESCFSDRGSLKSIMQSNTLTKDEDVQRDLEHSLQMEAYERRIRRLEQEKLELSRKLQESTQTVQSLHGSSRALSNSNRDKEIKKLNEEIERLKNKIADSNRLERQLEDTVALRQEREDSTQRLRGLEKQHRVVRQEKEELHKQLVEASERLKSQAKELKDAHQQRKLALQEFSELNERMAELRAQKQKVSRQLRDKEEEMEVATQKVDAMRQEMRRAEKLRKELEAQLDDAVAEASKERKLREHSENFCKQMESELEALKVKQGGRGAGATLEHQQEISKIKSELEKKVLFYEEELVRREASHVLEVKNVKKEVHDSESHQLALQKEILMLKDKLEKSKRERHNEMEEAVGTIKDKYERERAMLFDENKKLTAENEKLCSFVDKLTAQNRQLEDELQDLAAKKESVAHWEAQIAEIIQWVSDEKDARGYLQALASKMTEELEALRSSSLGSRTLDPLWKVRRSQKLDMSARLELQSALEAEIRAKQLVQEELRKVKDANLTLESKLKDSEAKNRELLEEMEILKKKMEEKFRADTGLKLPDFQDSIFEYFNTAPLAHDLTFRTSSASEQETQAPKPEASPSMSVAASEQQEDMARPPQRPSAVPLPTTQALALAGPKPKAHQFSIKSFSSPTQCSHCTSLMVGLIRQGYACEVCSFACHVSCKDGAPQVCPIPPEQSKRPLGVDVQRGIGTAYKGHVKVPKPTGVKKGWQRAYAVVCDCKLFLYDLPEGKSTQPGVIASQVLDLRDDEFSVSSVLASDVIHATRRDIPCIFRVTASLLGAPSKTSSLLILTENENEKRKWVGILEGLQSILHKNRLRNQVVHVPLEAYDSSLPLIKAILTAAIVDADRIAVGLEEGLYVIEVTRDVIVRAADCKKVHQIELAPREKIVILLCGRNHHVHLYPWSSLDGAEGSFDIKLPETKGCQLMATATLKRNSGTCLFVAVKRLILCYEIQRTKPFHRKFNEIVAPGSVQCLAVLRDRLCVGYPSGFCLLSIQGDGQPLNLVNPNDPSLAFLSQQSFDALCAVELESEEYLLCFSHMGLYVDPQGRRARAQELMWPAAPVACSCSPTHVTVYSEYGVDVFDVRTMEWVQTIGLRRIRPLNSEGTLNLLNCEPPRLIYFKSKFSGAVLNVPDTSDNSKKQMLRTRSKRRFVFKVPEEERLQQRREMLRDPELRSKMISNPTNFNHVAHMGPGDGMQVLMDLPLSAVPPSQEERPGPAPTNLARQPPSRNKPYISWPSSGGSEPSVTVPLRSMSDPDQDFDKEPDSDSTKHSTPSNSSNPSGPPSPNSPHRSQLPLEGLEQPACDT
Sequence of Interferon-induced, double-stranded RNA-activated protein kinase (Homo sapiens) (P19525 whole entry): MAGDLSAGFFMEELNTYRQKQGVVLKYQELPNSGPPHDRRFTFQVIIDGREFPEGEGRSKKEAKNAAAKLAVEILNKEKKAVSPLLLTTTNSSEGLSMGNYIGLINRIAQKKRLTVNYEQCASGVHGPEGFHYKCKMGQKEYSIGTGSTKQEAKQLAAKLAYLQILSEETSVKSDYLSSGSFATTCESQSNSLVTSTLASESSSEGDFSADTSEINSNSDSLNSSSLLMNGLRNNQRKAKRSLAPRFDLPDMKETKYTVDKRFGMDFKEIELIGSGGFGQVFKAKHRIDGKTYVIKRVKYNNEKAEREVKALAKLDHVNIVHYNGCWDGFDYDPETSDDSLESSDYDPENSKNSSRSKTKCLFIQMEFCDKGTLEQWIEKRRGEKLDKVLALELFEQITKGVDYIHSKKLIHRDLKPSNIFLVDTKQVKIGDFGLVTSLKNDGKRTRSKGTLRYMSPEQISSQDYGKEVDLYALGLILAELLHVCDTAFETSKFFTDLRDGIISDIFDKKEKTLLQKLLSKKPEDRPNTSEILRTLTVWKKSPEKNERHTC
Sequence of Adenosine receptor A1 (Homo sapiens) (P30542 whole entry): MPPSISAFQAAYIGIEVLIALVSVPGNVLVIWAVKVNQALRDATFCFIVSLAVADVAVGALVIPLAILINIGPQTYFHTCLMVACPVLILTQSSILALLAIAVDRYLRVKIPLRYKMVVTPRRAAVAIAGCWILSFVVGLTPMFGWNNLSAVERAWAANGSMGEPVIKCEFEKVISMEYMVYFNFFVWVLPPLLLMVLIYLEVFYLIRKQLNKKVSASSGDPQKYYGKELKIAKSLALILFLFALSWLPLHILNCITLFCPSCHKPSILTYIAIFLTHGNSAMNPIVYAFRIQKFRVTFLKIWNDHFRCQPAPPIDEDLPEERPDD

Structure (SMILES)	Ki (Oxytocin receptor)	inhibition [1] [%]	inhibition [2] [%]	inhibition [3] [%]	inhibition [4] [%]	inhibition [5] [%]	inhibition [6] [%]	inhibition [7] [%]	inhibition [8] [%]	inhibition [9] [%]	inhibition [10] [%]	inhibition [11] [%]	inhibition [12] [%]	inhibition [13] [%]	inhibition [14] [%]	inhibition [15] [%]	inhibition [16] [%]	inhibition [17] [%]	inhibition [18] [%]	inhibition [19] [%]	also measured
O=c1n(Cc2cncn2-c2cccc(Cl)c2)nc(-c2ccc(Cl)cc2)n1C[C@H](O)C(F)(F)F	> 10 µM (not active)	-2.29	2.57	12.7	6.42	11.7	-2.6	-7.8	-6.31	9.31	-1.06	8.71	11	-3.03	9.81	3.57	-0.67	-1.55	-2.58	8.99	inhibition [20]: 9.44%; inhibition [21]: -0.37%; inhibition [22]: 7.98%; inhibition [23]: 19.6%; inhibition [24]: 14.1%; inhibition [25]: -4.25%; inhibition [26]: 24.1%; inhibition [27]: 8%; inhibition (Rattus norvegicus): 9%; inhibition [28]: -3%
C[C@H](O)c1nc(Cn2nc(-c3ccc(Cl)cc3)n(C[C@H](O)C(F)(F)F)c2=O)nn1-c1cccc(Cl)c1 [PECAVAPTAN]	0.0051 µM (active)	-2.51	1.05	11.2	-3.46	-2.55	-1.32	-3.72	-2.21	-9.95	3.19	6.17	19.1	1.32	11.4	-1.95	1.32	-6.39	-3.44	2.69	inhibition [20]: 14.1%; inhibition [21]: -2.06%; inhibition [22]: 13.1%; inhibition [23]: 1.94%; inhibition [24]: 9.13%; inhibition [25]: 28.2%; inhibition [26]: 27%; inhibition [27]: 26%; inhibition (Rattus norvegicus): 8%; inhibition [28]: 11%
